Data taken from PubChem BioAssay (NCI).
Several values for one entry are separate records, joined by “and”; a condition that tells them apart may be missing. Identical values can stand only once.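 Each compound was tested at five concentrations against cells in 96-well plates for 48 hours. At the GI50, growth is halved. TGI is the concentration that stops growth completely.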

Tests used:
Assay in all cases: NCI anticancer screen, dose series, 48 h
[1] = test system: SNB-19 CNS
[2] = test system: MDA-MB-435
[3] = test system: 786-0 renal
[4] = test system: MOLT-4 leukemia
[5] = test system: SK-MEL-28 melanoma
[6] = test system: HT29 colon
[7] = test system: OVCAR-8 ovarian
[8] = test system: SN12C renal
[9] = test system: HOP-92 NSCLC
[10] = test system: RXF 393 renal

Structure (SMILES)	GI50 [1]	TGI [1]	GI50 [2]	TGI [2]	GI50 [3]	TGI [3]	GI50 [4]	TGI [4]	GI50 [5]	TGI [5]	GI50 [6]	TGI [6]	GI50 [7]	TGI [7]	GI50 [8]	TGI [8]	GI50 [9]	TGI [9]	GI50 [10]	TGI [10]
Cn1ncc(Cl)c1-c1cc(C(=O)N[C@H](CN)Cc2cccc(F)c2)sc1Cl	0.34 µM and 0.783 µM	1.87 µM and 13.4 µM	1.31 µM and 2.36 µM	> 5.99 µM and 12.7 µM	0.0578 µM and 0.0899 µM	1.85 µM and 4.12 µM	0.196 µM and 0.123 µM	3.13 µM and 3.51 µM	1.43 µM and 1.7 µM	4.85 µM and 9.04 µM	0.733 µM and 2.03 µM	> 6.18 µM and 13.9 µM	3.82 µM and 8.34 µM	> 7.9 µM and 23.8 µM	1.86 µM and 2.04 µM	> 10 µM and 19.3 µM	0.338 µM and 0.519 µM	2.77 µM and 4.21 µM	0.128 µM and 0.145 µM	1.72 µM and 0.896 µM
COC[C@H](NC(=O)c1cnc(C)s1)C(=O)N[C@@H](COC)C(=O)N[C@@H](Cc1ccccc1)C(=O)[C@@]1(C)CO1	> 65.3 µM	> 100 µM	12.9 µM	40 µM	50.1 µM	> 100 µM	23.8 µM	> 100 µM	27.5 µM	> 95.1 µM	21.1 µM	> 75.7 µM	> 93.2 µM	> 100 µM	37.6 µM	> 100 µM	30.3 µM	> 82.4 µM	15.5 µM	33.9 µM
CC1(C)N=C(N)N=C(N)N1c1ccc(CNC(=O)Nc2ccc(S(=O)(=O)F)c(Cl)c2)c(Cl)c1	3.64 µM	> 100 µM	0.183 µM	> 100 µM	0.872 µM	> 100 µM	0.954 µM	> 100 µM	4.35 µM	> 100 µM	0.195 µM	> 67.3 µM	2.08 µM	> 100 µM	0.867 µM	> 100 µM	19.9 µM	97.5 µM	0.525 µM	> 100 µM
C[C@@H]1C[C@H](N)C[C@H](c2ccncc2NC(=O)c2ccc(F)c(-c3c(F)cccc3F)n2)C1	15.6 µM and > 10 µM	30.3 µM and > 10 µM	10.4 µM and 9.19 µM	22.1 µM and > 10 µM	12.2 µM and > 10 µM	25.6 µM and > 10 µM	4.91 µM and 5.14 µM	20.6 µM and > 10 µM	10.4 µM and > 10 µM	22.6 µM and > 10 µM	4.17 µM and 5.55 µM	18.7 µM and > 10 µM	17.1 µM and > 10 µM	32.8 µM and > 10 µM	12.3 µM and > 10 µM	25.7 µM and > 10 µM			11 µM and 7.73 µM	26 µM and > 10 µM
CC1=C([Te]c2ccccc2)C(=O)c2ccccc2C1=O	0.551 µM	2.56 µM	1.8 µM	4.02 µM	2.01 µM	3.96 µM	0.287 µM	1.3 µM	1.25 µM	3.11 µM	0.344 µM	1.36 µM	0.374 µM	4.35 µM	0.311 µM	1.47 µM	0.315 µM	1.39 µM	1.14 µM	4.63 µM
CC1(C)Oc2ccc3ccc(=O)oc3c2C(O)C1O (stereo not drawn)		> 100 µM		> 100 µM		> 100 µM		53 µM		> 100 µM		71.3 µM		> 100 µM		> 100 µM		> 100 µM		> 100 µM
CCC(CC)n1cnc2c(-c3cnc(N)cn3)nc(N3CC4CCC(C3)O4)nc21	1.37 µM	> 100 µM	0.314 µM	4.63 µM	0.237 µM	> 100 µM	0.322 µM	53.4 µM			0.742 µM	> 100 µM	0.769 µM	> 100 µM	0.294 µM	> 100 µM	0.013 µM	0.145 µM	0.153 µM	1.6 µM
Nc1ncc(-c2ccc3ncnc(Nc4cccc(Cl)c4)c3c2)cn1	0.387 µM and 2.28 µM	> 100 µM			0.339 µM and 1.78 µM	> 100 µM					1.75 µM	> 100 µM	2.87 µM	> 100 µM	1.82 µM	> 100 µM	0.00741 µM	0.0974 µM		
O=C1c2ccccc2-c2c3c(cc4ccnc1c24)OCO3		> 100 µM and 77.4 µM				27.2 µM and > 100 µM		15.6 µM and > 100 µM		30.7 µM and > 100 µM		> 100 µM and 78 µM		27.7 µM and 25.5 µM		> 100 µM		39.9 µM and 37.1 µM		18.4 µM and 33 µM
c1ccc(SC(Sc2ccccc2)=C2CCC2)cc1		> 100 µM				> 100 µM		> 100 µM		> 100 µM				> 100 µM		> 100 µM		> 100 µM		> 100 µM
Oc1ccccc1-c1nn(CNc2ccc(Cl)cc2)c(=S)o1	> 100 µM	> 100 µM	3.21 µM	> 100 µM	> 100 µM	> 100 µM	20.7 µM	74 µM			24.2 µM	88.1 µM	30.2 µM	89.9 µM	75.8 µM	> 100 µM	88.8 µM	> 100 µM	19.9 µM	48.5 µM
CC1=CCC2CC1C(C(=O)c1c[nH]c3ccccc13)=NC2(C)C (stereo not drawn)		> 100 µM		> 100 µM		> 100 µM		> 100 µM		> 100 µM		> 100 µM		> 100 µM		> 100 µM				
CN(C)c1ccc(/C=c2\sc3nnc(-c4ccco4)n3c2=O)cc1		> 100 µM				> 100 µM		> 100 µM		> 100 µM				> 100 µM		> 100 µM		> 100 µM		> 100 µM
CCN(CC)CCN(CC)CC.CCN(CC)CCN(CC)CC.[Cu+2].[Cu+2].[O-][Cl+3]([O-])([O-])[O-].[OH3+].[OH3+]	22 µM	36.6 µM			46 µM	> 100 µM	91.4 µM	> 100 µM	22.1 µM	45.5 µM	25.6 µM	87.9 µM	> 100 µM	> 100 µM	90.7 µM	> 100 µM	> 100 µM	> 100 µM		
CCC[CH2][Sn](=[O])[CH2]CCC	> 50 µM	> 50 µM			> 50 µM	> 50 µM	> 50 µM	> 50 µM	> 50 µM	> 50 µM	> 50 µM	> 50 µM	> 50 µM	> 50 µM	> 50 µM	> 50 µM	31.9 µM	> 50 µM	47.7 µM	> 50 µM
